Results published in patent publication US10138237B2, “1,2,4-triazolo[4,3-a]pyridine compounds and their use as positive allosteric modulators of mGluR2 receptors” (Janssen Pharmaceutica NV, priority 2014, dated 2018).
Each block holds one molecule with its values, some of them ahead of it.

Key:
human mGlu2 receptor = molecular target: T1, human mGlu2 receptor (Homo sapiens, UniProt Q14416); experiment: [35S]GTPγS binding assay, hmGluR2 PAM; format: biochemical; conditions: in presence of EC20 glutamate; for GTPγS - hmGluR2 PAM Emax / Emax: maximal % effect relative to the control glutamate response; for EC50: membranes from CHO cells with human mGlu2 receptor, -log EC50 in M, read-out: GTPγS - hmGluR2 PAM pEC50 (converted)
T1 construct: expressed in transfected cells; host or cells: CHO cells (membrane preparation)
T1 sequence (Q14416 19-872): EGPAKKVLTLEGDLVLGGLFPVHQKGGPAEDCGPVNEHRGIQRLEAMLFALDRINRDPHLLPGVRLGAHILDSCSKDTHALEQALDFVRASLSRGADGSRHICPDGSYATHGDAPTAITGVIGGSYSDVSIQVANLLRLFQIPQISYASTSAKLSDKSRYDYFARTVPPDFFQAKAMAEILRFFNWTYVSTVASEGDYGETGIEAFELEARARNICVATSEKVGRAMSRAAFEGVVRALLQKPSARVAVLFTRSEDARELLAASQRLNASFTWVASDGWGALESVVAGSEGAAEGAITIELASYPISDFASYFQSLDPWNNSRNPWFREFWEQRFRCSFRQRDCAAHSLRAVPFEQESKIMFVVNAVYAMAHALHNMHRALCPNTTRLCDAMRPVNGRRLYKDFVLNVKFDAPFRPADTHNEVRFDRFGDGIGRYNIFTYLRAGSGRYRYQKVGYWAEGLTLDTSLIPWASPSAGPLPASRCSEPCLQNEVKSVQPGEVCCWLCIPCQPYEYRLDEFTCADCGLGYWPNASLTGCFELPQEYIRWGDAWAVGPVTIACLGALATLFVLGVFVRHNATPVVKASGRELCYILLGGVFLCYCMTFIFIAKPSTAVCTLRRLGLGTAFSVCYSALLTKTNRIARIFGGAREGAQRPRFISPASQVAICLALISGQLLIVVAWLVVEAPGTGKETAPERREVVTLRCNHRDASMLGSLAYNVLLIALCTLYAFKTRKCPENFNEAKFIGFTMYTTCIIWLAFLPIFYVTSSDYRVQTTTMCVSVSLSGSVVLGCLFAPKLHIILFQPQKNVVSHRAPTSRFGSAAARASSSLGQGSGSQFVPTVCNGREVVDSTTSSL
Excerpt: The compounds provided in the present invention are positive allosteric modulators of mGluR2. These compounds appear to potentiate glutamate responses by binding to an allosteric site other than the glutamate binding site. The response of mGluR2 to a concentration of glutamate is increased when compounds of Formula (I) are present. Compounds of Formula (I) are expected to have their effect substantially at mGluR2 by virtue of their ability to enhance the function of the receptor. The effects of positive allosteric modulators tested at mGluR2 using the [^35S]GTPγS binding assay method described below and which is suitable for the identification of such compounds, and more particularly the compounds according to Formula (I), are shown in Table 8.
[^35S]GTPγS Binding Assay
The [^35S]GTPγS binding assay is a functional membrane-based assay used to study G-protein coupled receptor (GPCR) function whereby incorporation of a non-hydrolysable form of GTP, [^35S]GTPγS (guanosine 5′-triphosphate, labelled with […] ^35S), is measured. The G-protein α subunit catalyzes the exchange of guanosine 5′-diphosphate (GDP) by guanosine triphosphate (GTP) and on activation of the GPCR by an agonist, [^35S]GTPγS, becomes incorporated and cannot be cleaved to continue the exchange cycle (Harper (1998) Current Protocols in Pharmacology 2.6.1-10, John Wiley & Sons, Inc.). […] Here we describe the use of the [^35S]GTPγS binding assay using membranes from cells transfected with the human mGlu2 receptor and adapted from Schaffhauser et al. (Molecular Pharmacology, 2003, […]) for the detection of the positive allosteric modulation (PAM) properties of the compounds of this invention.
CHO-cells were cultured to pre-confluence and stimulated with 5 mM butyrate for 24 h. Cells were then collected by scraping in PBS and cell suspension was centrifuged (10 min at 4000 RPM in benchtop centrifuge). Supernatant was discarded and pellet gently resuspended in 50 mM Tris-HCl, pH 7.4 by mixing with a vortex and pipetting up and down. The suspension was centrifuged at 16,000 RPM (Sorvall RC-5C plus rotor SS-34) for 10 minutes and the supernatant discarded. The pellet was homogenized in 5 mM Tris-HCl, pH 7.4 using an ultra-turrax homogenizer and centrifuged again (18,000 RPM, 20 min, 4° C.). The final pellet was resuspended in 50 mM Tris-HCl, pH 7.4 and stored at −80° C. in appropriate aliquots before use. Protein concentration was determined by the Bradford method (Bio-Rad, USA) with bovine serum albumin as standard.
Measurement of mGluR2 positive allosteric modulatory activity of test compounds was performed as follows. Test compounds and glutamate were diluted in assay buffer containing 10 mM HEPES acid, 10 mM HEPES salt, pH 7.4, 100 mM NaCl, 3 mM MgCl2 and 10 μM GDP. Human mGlu2 receptor-containing membranes were thawed on ice and diluted in assay buffer supplemented with 14 μg/ml saponin. Membranes were pre-incubated with compound alone or together with a predefined (˜EC20) concentration of glutamate (PAM assay) for 30 min at 30° C. After addition of [^35S]GTPγS (f.c. 0.1 nM), assay mixtures were shaken briefly and further incubated to allow [^35S]GTPγS incorporation on activation (30 minutes, 30° C.). Final assay mixtures contained 7 μg of membrane protein in 10 mM HEPES acid, 10 mM HEPES salt, pH 7.4, 100 mM NaCl, 3 mM MgCl2, 10 μM GDP and 2 μg/ml saponin. Total reaction volume was 200 μl. Reactions were terminated by rapid filtration through Unifilter-96 GF/B plates (Perkin Elmer, Massachusetts, USA) using a 96-well filtermate universal harvester. Filters were washed 6 times with ice-cold 10 mM NaH2PO4/10 mM Na2HPO4, pH 7.4. Filters were then air-dried, and 40 μl of liquid scintillation cocktail (Microscint-O) was added to each well. Membrane-bound radioactivity was counted in a Microplate Scintillation and Luminescence Counter from Perkin Elmer. […]

[1] = tested on: 6 Hz (32 mA, 3 s, corneal) limbic seizure in mice; experiment: Anticonvulsant studies - 6 Hz test in mice; format: in vivo; conditions: Mus musculus, Score ≤ 2 (protected), 32 mA for 3 s
Experimental: Anticonvulsant Studies—6 Hz Test in Mice
At a predefined interval after drug treatment (standard: 0.5 h). individual mice were challenged with sufficient current (32 mA for 3 s; delivered through corneal electrodes) to elicit a limbic seizure. The manifestations of the “psychomotor” seizure were first described by Toman (Toman, J. E. P., 1951, “Neuropharmacologic considerations in psychic seizures” Neurology, 1, 444-460; Toman, J. E. P., Evertett, G. M., Richards, R. K., 1952, “The search for new drugs against epilepsy” Tex. Rep. Biol. Med. 10, 96-104). […] This may be characterized by immobility, or a lack of awareness regarding its environment as it goes directly into behaviours 2 and 3 (forepaw clonus or facial automatisms). The stun posture is most often upright, but the mouse may also fall on its side during a seizure; the fore limbs are often crossed and the hind limbs are spread wide apart. The “stunning” may occasionally be preceded by a few seconds of running with a rolling gait. 2) Forepaw clonus or automatism: usually resembles the mouse repeatedly raising its forepaw and then stomping it onto the ground. This is generally repeated several times, but must be repeated at least twice to be considered present. 3) Facial automatism: in the mouse best resembles jaw chomping or air biting; this also must occur at least twice to be considered present. 4) Elevated or Straub tail, which must be elevated to greater than a 45 degree angle to be considered present. The duration of the seizure varies from 5 to 75 s; at the end of the seizure, the animal rather suddenly resumes normal locomotion and exploratory behaviour. Each of the four above mentioned behaviours was scored as either absent (0) or present (1).

[2] = tested on: smoking cessation-induced deficits; conditions: versus placebo; cited from earlier work
[3] = tested on: S-ketamine-induced negative symptoms; conditions: healthy volunteers and patients with predominant negative symptoms of schizophrenia; cited from earlier work
[4] = tested on: major depressive disorder with anxiety symptoms; conditions: adjunctive administration; adults with major depressive disorder with anxiety symptoms; cited from earlier work

Compound: CCOCc1nnc2c(C(F)(F)F)c(C3CCN(c4ncc(Cl)c(OCC)n4)C3)ccn12 (single isomer, unassigned) [Co. No. 2a, 7-[(3*R)-1-(5-chloro-4-ethoxy-pyrimidin-2-yl)pyrrolidin-3-yl]-3-(ethoxymethyl)-8-(trifluoromethyl)-[1,2,4]triazolo[4,3-a]pyridine]
GTPγS - hmGluR2 PAM Emax (human mGlu2 receptor; listed as 2a): 226.905% | EC50 (human mGlu2 receptor): 2090 nM

Compound: CCOCc1nnc2c(C(F)(F)F)c(C3CCN(c4ncc(Cl)c(OCC)n4)C3)ccn12 (single isomer, unassigned) [Co. No. 2b, 7-[(3*S)-1-(5-chloro-4-ethoxy-pyrimidin-2-yl)pyrrolidin-3-yl]-3-(ethoxymethyl)-8-(trifluoromethyl)-[1,2,4]triazolo[4,3-a]pyridine]
GTPγS - hmGluR2 PAM Emax (human mGlu2 receptor; listed as 2b): 295.62% | EC50 (human mGlu2 receptor): 9.77 nM | ED50 ([1]; route PO): 20 mg/kg

Compound: CCCCn1ccc(N2CCC(c3ccccc3)CC2)c(Cl)c1=O [JNJ-40411813/ADX71149]
effect on craving and smoking cessation-induced deficits in attention and episodic memory [2]: reduce craving and improve smoking cessation-induced deficits in attention and episodic memory | efficacy in S-ketamine-induced negative symptoms [3]: showed an efficacy signal | efficacy on several secondary outcome measures of both depression and anxiety [4]: showed efficacy signals | efficacy on the primary outcome measure [4]: no efficacy signal was detected

Second part, led by results:

GTPγS - hmGluR2 PAM Emax (human mGlu2 receptor): 148.44% | EC50 (human mGlu2 receptor): 214 nM | melting point: 167.64 °C
Compound: CCOc1nc(N2CCC(c3ccn4c(CC5CC5)nnc4c3C(F)(F)F)C2)ncc1Cl (single isomer, unassigned) [Co. No. 1a, 7-[(3*R)-1-(5-chloro-4-ethoxy-pyrimidin-2-yl)pyrrolidin-3-yl]-3-(cyclopropylmethyl)-8-(trifluoromethyl)-[1,2,4]triazolo[4,3-a]pyridine]

GTPγS - hmGluR2 PAM Emax (human mGlu2 receptor): 277.87% | EC50 (human mGlu2 receptor): 3.8 nM | melting point: 168.29 °C
Compound: CCOc1nc(N2CCC(c3ccn4c(CC5CC5)nnc4c3C(F)(F)F)C2)ncc1Cl (single isomer, unassigned) [Co. No. 1b, 7-[(3*S)-1-(5-chloro-4-ethoxy-pyrimidin-2-yl)pyrrolidin-3-yl]-3-(cyclopropylmethyl)-8-(trifluoromethyl)-[1,2,4]triazolo[4,3-a]pyridine]
ED50 ([1]; route PO): 20 mg/kg | ED50 ([1]; route SC): 3.79 mg/kg

Emax (human mGlu2 receptor): 234% | EC50 (human mGlu2 receptor): 5.89 nM
Compound: CCOc1nc(N2CCC(c3ccn4c(CC5CC5)nnc4c3C(F)(F)F)C2)ncc1Cl (stereo not shown) [Co. No. 1, 7-[1-(5-chloro-4-ethoxy-pyrimidin-2-yl)pyrrolidin-3-yl]-3-(cyclopropylmethyl)-8-(trifluoromethyl)-[1,2,4]triazolo[4,3-a]pyridine]

Emax (human mGlu2 receptor): 345% | EC50 (human mGlu2 receptor): 17 nM | melting point: 153.86 °C
Compound: CCOCc1nnc2c(C(F)(F)F)c(C3CCN(c4ncc(Cl)c(OCC)n4)C3)ccn12 (stereo not shown) [Co. No. 2, 7-[1-(5-chloro-4-ethoxy-pyrimidin-2-yl)pyrrolidin-3-yl]-3-(ethoxymethyl)-8-(trifluoromethyl)-[1,2,4]triazolo[4,3-a]pyridine]
